Source: US12421216B2, “Voruciclib polymorphs and methods of making and using thereof” (MEI PHARMA, INC., priority 2019, dated 2025)
Values after ≈ are worked out from the molar mass of the structure shown. “Also recorded” adds a separate entry of the source. Values belong to the compound of their own block, whether it stands above or below them.

Key:
[1] = acid counterion; cited from earlier work
[2] = Physical stability upon exposure to accelerated aging conditions (AAC, 40° C./75% RH), re-analysis by HT-XRPD; format: physicochemical; conditions: for Physical stability upon exposure to AAC: HT-XRPD before and after; for Solid forms Vacuum AAC: vacuum-dried solids after AAC (40° C./75% RH, 2 days)
[3] = Physical stability of solid forms upon drying under vacuum, HT-XRPD; format: physicochemical; conditions: for Physical stability upon drying under deep/high vacuum: oxalate, phosphate, malonate forms, 5 mbar, 18 h; for Solid forms Vacuum: form after drying under deep vacuum (5 mbar, 18 h), HT-XRPD
Method: (§1) Amorphous voruciclib oxalate salt, generated by freeze-drying, was used to start the thermocycling experiments. Suspensions were prepared in the selected solvent systems at RT. Subsequently, the mixtures were subjected to a temperature profile. After the temperature profile, the solids were separated from the solutions by centrifugation and were dried at ambient conditions and under deep vacuum before being harvested and analyzed by HT-XRPD. The liquid phases were also dried under deep vacuum before being harvested and analyzed by HT-XRPD. All solids were exposed to AAC (40° C./75% RH, 2 days).
(§2) After the temperature profile, the solids were separated from the liquids by centrifugation and the solid phase was dried at ambient conditions and under deep vacuum (5 mbar) before being harvested and analyzed by HT-XRPD. The liquid phases were dried under deep vacuum (5 mbar) and the recovered solids were analyzed by HT-XRPD. All solids were then exposed to accelerated aging conditions (40° C./75% RH, 2 days) followed by HT-XRPD re-analysis.
as §1, with “voruciclib phosphate” for “voruciclib oxalate”, “profile. Upon completion of” for “profile. After”, “dried under” for “dried at”
as §2, with “dried under” for “dried at”, “(5 mbar, 18 h)” for “(5 mbar)”
Amorphous voruciclib malonate salt, generated by freeze-drying, was used to start the thermocycling experiments. Suspensions were prepared in the selected solvent systems at RT and were subjected to three thermocycles between 50 and 5° C., followed by aging at 25° C. for 3 days. Upon completion of the aging time, the solids were separated from the liquids by centrifugation and they were dried at ambient conditions and under deep vacuum (5 mbar) before being harvested and analyzed by HT-XRPD.
After the temperature profile the solids were separated from the solution by centrifugation and they were dried at ambient conditions and under deep vacuum before being harvested and analyzed by HT-XRPD.

[4] = Solubility of salts in water and in 0.2 M phosphate buffer pH 6 at 37° C. after 4 hours (HPLC-DAD); format: physicochemical; conditions: for pH (4 h): pH at end of equilibration
Method: Two sets of solubility experiments were performed. […] In the second set of solubility experiments about 5 mg of the salt was weighed in a standard 1.8 mL HPLC vial. Subsequently, aliquots of 200 μL of aqueous medium were added up to a maximum of 1 mL, while making observations regarding the dissolution behavior of the salts. The vials were left to equilibrate at 37° C. with continuous stirring (see Table 25 for details). After 4 hours the solids were separated from the liquid by centrifugation and the liquid phase was further filtrated through a […] PTFE filter to remove any particulate matter. The concentration of solute was determined by HPLC-DAD analysis. A calibration curve was made from two independent stock solutions of voruciclib prepared in acetonitrile/water. The pH was recorded at the end of the equilibration time.

[5] = Approximate solubility assessment of the free base by the solvent (aliquot) addition method; format: physicochemical; conditions: for Solubility in words / solubility: RT; for solubility: thermodynamic from solid
Method: The approximate solubility of the free base was assessed in several organic solvents (Table 17) by the solvent addition method. To about 5 mg of free base, aliquots of solvent were added until complete dissolution was observed or until a concentration […] was reached. Aliquots of 100 μL were used up to 2 mL, followed by aliquots of 1 mL up to 8 mL. […] Based on the solubility results, in some embodiments the crystallization solvents selected for salt formation were THF, ethanol and acetone.
The solubility assessment was performed according to the aliquot addition method and visually assessed. About 5 mg of free base was weighed into 8 mL glass vials. Aliquots of 100 μL were added up to 2 mL, followed by aliquots of 1 mL up to 8 mL. The experimental conditions are described in Table 21.

[6] = Thermal stability of the free base in solution (HPLC); format: physicochemical; conditions: for Area (HPLC): 1 h
[7] = oxalate salt thermocycling, HT-XRPD
[8] = 0.2M phosphate buffer pH 6, 37° C., about 1 mg salt in 1 mL
[9] = 0.2M phosphate buffer pH 6, 37° C., about 5 mg salt in 1 mL
[10] = water, 37° C., about 1 mg salt in 1 mL
[11] = water, 37° C., about 5 mg salt, up to 1 mL

SMILES: O=C(O)CCCC(=O)O [Glutaric]
pka1 [1]: 4.3 | pka2 [1]: 5.3

SMILES: O=S(=O)(O)c1cccc2c(S(=O)(=O)O)cccc12 [Naphthalene-1,5-disulfonic]
pka1 [1]: −3.4 | pka2 [1]: −2.6

SMILES: O=S(=O)(O)c1ccc2ccccc2c1 [Naphthalene-2-sulfonic]
pka1 [1]: 0.2

Stability AAC ([2]; oxalate salt cooling crystallization solids, AAC (40° C./75% RH, 1 day)): Stable | Solid forms Vacuum AAC [2, 7]: Oxa1 | Solid phase AAC (XRPD form after accelerated aging) ([2]; precipitated solids of the salt screen, dried under vacuum at 50° C., 40° C./75% RH for 2 days, HT-XRPD): Oxa1 | Stable during AAC ([2]; salt screen solids, 40° C./75% RH, 2 days): Yes | Vacuum ([3]; oxalate salt cooling crystallization, form after drying under deep vacuum (5 mbar), label = ambient-dried form): Oxa1 | Physical stability upon drying under deep/high vacuum [3]: physically stable | Solubility in phosphate buffer ([4]; 0.2 M phosphate buffer pH 6, 37° C., 4 hours): 30 µg/mL | solubility ([4]; 0.2M phosphate buffer pH 6, 37° C., 4 hours, about 1 mg salt in 1 mL): 20 µg/mL | solubility ([4]; 0.2M phosphate buffer pH 6, 37° C., 4 hours, about 5 mg salt in 1 mL): 30 µg/mL | Solids recovered / salt dissociation after solubility determination in buffer ([4]; 0.2 M phosphate buffer pH 6, 37° C., 4 hours, XRPD): The salt had dissociated in the buffer | Form (4 h) of residual solid [4, 8]: Am | pH (4 h) [4, 8]: 6.0 | Form (4 h) of residual solid [4, 9]: Free | pH (4 h) [4, 9]: 5.8 | solubility ([4]; water, 37° C., 4 hours, about 1 mg salt in 1 mL): hazy | solubility ([4]; water, 37° C., 4 hours, about 5 mg salt, up to 1 mL): hazy | Form (4 h) of residual solid [4, 10]: Free | pH (4 h) [4, 10]: 4.4 | Form (4 h) of residual solid [4, 11]: Oxa1 | pH (4 h) [4, 11]: 4.3
SMILES: CN1CC[C@@H](c2c(O)cc(O)c3c(=O)cc(-c4ccc(C(F)(F)F)cc4Cl)oc23)[C@@H]1CO.CN1CC[C@@H](c2c(O)cc(O)c3c(=O)cc(-c4ccc(C(F)(F)F)cc4Cl)oc23)[C@@H]1CO.O.O=C(O)C(=O)O [Oxa1]
Physical stability upon exposure to AAC ([2]; 40° C./75% RH, 2 days): stable when exposed to advanced aging conditions; also recorded: physically stable under short term stress conditions; also recorded: physically stable upon exposure to AAC for two days; also recorded: remained stable upon exposure to AAC | Solids recovered after solubility determination in water ([4]; water, 37° C., 4 hours, XRPD): The residual solids of the suspension were identical to Oxa1

Solid forms Ambient AAC ([2]; oxalate salt thermocycling, ambient-dried solids after AAC (40° C./75% RH, 2 days), HT-XRPD): Oxa2 + peaks | Solid forms Vacuum AAC [2, 7]: Oxa2 + peaks | Solid forms Vacuum ([3]; oxalate salt thermocycling solids, label = ambient-dried form): Oxa2 + peaks
SMILES: CN1CCC(c2c(O)cc(O)c3c(=O)cc(-c4ccc(C(F)(F)F)cc4Cl)oc23)C1CO.O=C(O)C(=O)O (centres unmarked) [Oxa2 + peaks]

Physical stability upon drying under deep/high vacuum [3]: remained physically stable | Solid forms Vacuum ([3]; phosphate salt thermocycling solids, label = ambient-dried form): Pho7
SMILES: CN1CCC(c2c(O)cc(O)c3c(=O)cc(-c4ccc(C(F)(F)F)cc4Cl)oc23)C1CO.O=P(O)(O)O (centres unmarked) [Pho7]
Physical stability upon exposure to AAC ([2]; 40° C./75% RH, 2 days): additional diffraction peaks were observed; also recorded: unstable upon exposure to AAC

Solubility at RT ([5]; 1,4-Dioxane): ~1000 µg/mL (≈ 2.13 mM) | Solubility at RT ([5]; 2-Propanol): ~8000 µg/mL (≈ 17 mM) | Solubility at RT ([5]; Acetonitrile): ~5000 µg/mL (≈ 10.6 mM) | Solubility at RT ([5]; Chloroform): ~5000 µg/mL (≈ 10.6 mM) | Solubility at RT ([5]; Ethyl acetate): ~1000 µg/mL (≈ 2.13 mM) | Solubility in words ([5]; THF): soluble | Solubility at RT ([5]; Water): <1000 µg/mL | Solubility in words ([5]; methanol, ethanol and acetone): sparingly soluble | solubility ([5]; organic solvent or mixture, 1,4-Dioxane, approximate, solvent addition, read-out: Solubility): ~1000 µg/mL (≈ 2.13 mM) | solubility ([5]; organic solvent or mixture, 2-Propanol, approximate, solvent addition, read-out: Solubility): ~8000 µg/mL (≈ 17 mM) | solubility ([5]; organic solvent or mixture, Acetone, approximate, solvent addition, read-out: Solubility): 10000 to 13000 µg/mL (≈ 21.3 to 27.7 mM) | solubility ([5]; organic solvent or mixture, Acetonitrile, approximate, solvent addition, read-out: Solubility): ~5000 µg/mL (≈ 10.6 mM) | solubility ([5]; organic solvent or mixture, Chloroform, approximate, solvent addition, read-out: Solubility): ~5000 µg/mL (≈ 10.6 mM) | solubility ([5]; organic solvent or mixture, Ethanol, approximate, solvent addition, read-out: Solubility): 14000 to 18000 µg/mL (≈ 29.8 to 38.3 mM) | solubility ([5]; organic solvent or mixture, Ethyl acetate, approximate, solvent addition, read-out: Solubility): ~1000 µg/mL (≈ 2.13 mM) | solubility ([5]; organic solvent or mixture, Methanol, approximate, solvent addition, read-out: Solubility): 17000 to 26000 µg/mL (≈ 36.2 to 55.3 mM) | solubility ([5]; organic solvent or mixture, Tetrahydrofuran, approximate, solvent addition, read-out: Solubility): 30000 to 60000 µg/mL (≈ 63.9 to 128 mM) | solubility ([5]; organic solvent or mixture, solvents other than THF, methanol, ethanol, acetone, read-out: Solubility in other solvents): < 10000 µg/mL | solubility ([5]; Water, approximate, solvent addition, read-out: Solubility): < 1000 µg/mL | Solubility in words ([5]; water): practically insoluble | Area (HPLC) ([6]; Acetone solution, 25° C.): 1562.10 mAu*s | Area (HPLC) ([6]; Acetone solution, 50° C.): 1566.22 mAu*s | Area (HPLC) ([6]; Acetone solution, 80° C.): 1566.56 mAu*s | Area (HPLC) ([6]; Ethanol solution, 25° C.): 1633.32 mAu*s | Area (HPLC) ([6]; Ethanol solution, 50° C.): 1625.98 mAu*s | Area (HPLC) ([6]; Ethanol solution, 80° C.): 1625.83 mAu*s | Thermal stability in solution ([6]; THF, ethanol, acetone solutions, RT 24 h, 50° C. and 80° C. 1 h, HPLC purity): thermally stable in solution | Area (HPLC) ([6]; Tetrahydrofuran solution, 25° C.): 1697.99 mAu*s | Area (HPLC) ([6]; Tetrahydrofuran solution, 50° C.): 1713.96 mAu*s | Area (HPLC) ([6]; Tetrahydrofuran solution, 80° C.): 1701.15 mAu*s | Solubility pH 6 ([4]; 0.2M phosphate buffer (pH 6), 37° C., 4 hours, listed as Voruciclib Free base): 0.01 mg/mL | Solubility water ([4]; water, 37° C., 4 hours, listed as Voruciclib Free base): <10 µg/mL
SMILES: CN1CC[C@@H](c2c(O)cc(O)c3c(=O)cc(-c4ccc(C(F)(F)F)cc4Cl)oc23)[C@@H]1CO [Voruciclib, (+)-trans-2-(2-chloro-4-trifluoromethylphenyl)-5,7-dihydroxy-8-(2-hydroxymethyl-1-methylpyrrolidin-3-yl)-chromen-4-one]
